Reference: patent publication US7972859B2, “Authentication of ingestible products using saccharides as markers” (Authentix, Inc., priority 2006, dated 2011)
Like-named read-outs stand apart in the source and are kept apart here.

Assays:
[1] = biological target: Maltose binding protein (Escherichia coli, UniProt P0AEX9); conditions: cited from earlier work
[2] = biological target: T1, MBP (Escherichia coli, UniProt P0AEX9); test: inhibition of amylose-MBP binding by maltose (ELISA); design: 6xHis (C); made in house; host or cells: E. coli BL-21 (DE3); species or system E. coli
[3] = biological target: T1, MBP
Method: TMB (3,3′,5,5′ tetramethylbenzidine) is a chromogen that yields a blue color when oxidized with hydrogen peroxide (catalyzed by HRP) with major absorbances at 370 nm and 652 nm. Adding sulfuric or phosphoric acid to stop the reaction changes the product to yellow that absorbs at 450 nm and provides greater sensitivity than the blue product.
For any test samples outside of such a range, dilution with a buffered solution is carried out.

OC[C@H]1O[C@H](O[C@H]2[C@H](O)[C@@H](O)[C@H](O)O[C@@H]2CO)[C@H](O)[C@@H](O)[C@@H]1O [maltose]
saturated at (level) ([1]; saturation of maltose binding protein, as ppb): about 400 ppb
saturated at (concentration) ([1]; saturation of maltose binding protein): about 10 μM
interference with binding of MBP with amylose ([2]; 50 μM maltose): 90%
inhibition at 5000 µM ([2]; read-out: inhibition of binding of MBP to amylose): 95%

amylose
Absorbance at 450 nm ([3]; Na2CO3 buffer pH 8.3, listed as level 0.0001 (unit not given)): 0.215
Absorbance at 450 nm ([3]; Na2CO3 buffer pH 8.3, listed as level 0.0002 (unit not given)): 0.181
Absorbance at 450 nm ([3]; Na2CO3 buffer pH 8.3, listed as level 0.0005 (unit not given)): 0.233
Absorbance at 450 nm ([3]; Na2CO3 buffer pH 8.3, listed as level 0.001 (unit not given)): 0.216
Absorbance at 450 nm ([3]; Na2CO3 buffer pH 8.3, listed as level 0.01 (unit not given)): 0.440
Absorbance at 450 nm ([3]; Na2CO3 buffer pH 8.3, listed as level 0.1 (unit not given)): 0.870
Absorbance at 450 nm ([3]; Na2CO3 buffer pH 8.3, listed as level 1 (unit not given)): 0.748
Absorbance at 450 nm ([3]; Na2CO3 buffer pH 8.9, listed as level 0.0001 (unit not given)): 0.215
Absorbance at 450 nm ([3]; Na2CO3 buffer pH 8.9, listed as level 0.0002 (unit not given)): 0.170
Absorbance at 450 nm ([3]; Na2CO3 buffer pH 8.9, listed as level 0.0005 (unit not given)): 0.175
Absorbance at 450 nm ([3]; Na2CO3 buffer pH 8.9, listed as level 0.001 (unit not given)): 0.248
Absorbance at 450 nm ([3]; Na2CO3 buffer pH 8.9, listed as level 0.01 (unit not given)): 0.502
Absorbance at 450 nm ([3]; Na2CO3 buffer pH 8.9, listed as level 0.1 (unit not given)): 0.847
Absorbance at 450 nm ([3]; Na2CO3 buffer pH 8.9, listed as level 1 (unit not given)): 0.787
Absorbance at 450 nm ([3]; Na2CO3 buffer pH 9.3, listed as level 0.0001 (unit not given)): 0.196
Absorbance at 450 nm ([3]; Na2CO3 buffer pH 9.3, listed as level 0.0002 (unit not given)): 0.169
Absorbance at 450 nm ([3]; Na2CO3 buffer pH 9.3, listed as level 0.0005 (unit not given)): 0.152
Absorbance at 450 nm ([3]; Na2CO3 buffer pH 9.3, listed as level 0.001 (unit not given)): 0.179
Absorbance at 450 nm ([3]; Na2CO3 buffer pH 9.3, listed as level 0.01 (unit not given)): 0.438
Absorbance at 450 nm ([3]; Na2CO3 buffer pH 9.3, listed as level 0.1 (unit not given)): 0.828
Absorbance at 450 nm ([3]; Na2CO3 buffer pH 9.3, listed as level 1 (unit not given)): 0.788
Absorbance at 450 nm ([3]; Na2CO3 buffer pH 9.9, listed as level 0.0001 (unit not given)): 0.235
Absorbance at 450 nm ([3]; Na2CO3 buffer pH 9.9, listed as level 0.0002 (unit not given)): 0.182
Absorbance at 450 nm ([3]; Na2CO3 buffer pH 9.9, listed as level 0.0005 (unit not given)): 0.192
Absorbance at 450 nm ([3]; Na2CO3 buffer pH 9.9, listed as level 0.001 (unit not given)): 0.241
Absorbance at 450 nm ([3]; Na2CO3 buffer pH 9.9, listed as level 0.01 (unit not given)): 0.452
Absorbance at 450 nm ([3]; Na2CO3 buffer pH 9.9, listed as level 0.1 (unit not given)): 0.849
Absorbance at 450 nm ([3]; Na2CO3 buffer pH 9.9, listed as level 1 (unit not given)): 0.868
Absorbance at 450 nm ([3]; Na2CO3 buffer pH 10, listed as level 0.0001 (unit not given)): 0.237
Absorbance at 450 nm ([3]; Na2CO3 buffer pH 10, listed as level 0.0002 (unit not given)): 0.224
Absorbance at 450 nm ([3]; Na2CO3 buffer pH 10, listed as level 0.0005 (unit not given)): 0.183
Absorbance at 450 nm ([3]; Na2CO3 buffer pH 10, listed as level 0.001 (unit not given)): 0.160
Absorbance at 450 nm ([3]; Na2CO3 buffer pH 10, listed as level 0.01 (unit not given)): 0.432
Absorbance at 450 nm ([3]; Na2CO3 buffer pH 10, listed as level 0.1 (unit not given)): 0.793
Absorbance at 450 nm ([3]; Na2CO3 buffer pH 10, listed as level 1 (unit not given)): 0.918
Absorbance at 450 nm ([3]; Na2CO3 buffer pH 11, listed as level 0.0001 (unit not given)): 0.185
Absorbance at 450 nm ([3]; Na2CO3 buffer pH 11, listed as level 0.0002 (unit not given)): 0.183
Absorbance at 450 nm ([3]; Na2CO3 buffer pH 11, listed as level 0.0005 (unit not given)): 0.215
Absorbance at 450 nm ([3]; Na2CO3 buffer pH 11, listed as level 0.001 (unit not given)): 0.193
Absorbance at 450 nm ([3]; Na2CO3 buffer pH 11, listed as level 0.01 (unit not given)): 0.512
Absorbance at 450 nm ([3]; Na2CO3 buffer pH 11, listed as level 0.1 (unit not given)): 0.845
Absorbance at 450 nm ([3]; Na2CO3 buffer pH 11, listed as level 1 (unit not given)): 0.908
Absorbance at 450 nm ([3]; NaHCO3 buffer pH 5.7, listed as level 0.0001 (unit not given)): 0.297
Absorbance at 450 nm ([3]; NaHCO3 buffer pH 5.7, listed as level 0.0002 (unit not given)): 0.264
Absorbance at 450 nm ([3]; NaHCO3 buffer pH 5.7, listed as level 0.0005 (unit not given)): 0.314
Absorbance at 450 nm ([3]; NaHCO3 buffer pH 5.7, listed as level 0.001 (unit not given)): 0.238
Absorbance at 450 nm ([3]; NaHCO3 buffer pH 5.7, listed as level 0.01 (unit not given)): 0.465
Absorbance at 450 nm ([3]; NaHCO3 buffer pH 5.7, listed as level 0.1 (unit not given)): 0.861
Absorbance at 450 nm ([3]; NaHCO3 buffer pH 5.7, listed as level 1 (unit not given)): 0.815
Absorbance at 450 nm ([3]; NaHCO3 buffer pH 6.3, listed as level 0.0001 (unit not given)): 0.243
Absorbance at 450 nm ([3]; NaHCO3 buffer pH 6.3, listed as level 0.0002 (unit not given)): 0.192
Absorbance at 450 nm ([3]; NaHCO3 buffer pH 6.3, listed as level 0.0005 (unit not given)): 0.271
Absorbance at 450 nm ([3]; NaHCO3 buffer pH 6.3, listed as level 0.001 (unit not given)): 0.219
Absorbance at 450 nm ([3]; NaHCO3 buffer pH 6.3, listed as level 0.01 (unit not given)): 0.392
Absorbance at 450 nm ([3]; NaHCO3 buffer pH 6.3, listed as level 0.1 (unit not given)): 0.879
Absorbance at 450 nm ([3]; NaHCO3 buffer pH 6.3, listed as level 1 (unit not given)): 0.826
Absorbance at 450 nm ([3]; NaHCO3 buffer pH 6.9, listed as level 0.0001 (unit not given)): 0.199
Absorbance at 450 nm ([3]; NaHCO3 buffer pH 6.9, listed as level 0.0002 (unit not given)): 0.154
Absorbance at 450 nm ([3]; NaHCO3 buffer pH 6.9, listed as level 0.0005 (unit not given)): 0.234
Absorbance at 450 nm ([3]; NaHCO3 buffer pH 6.9, listed as level 0.001 (unit not given)): 0.140
Absorbance at 450 nm ([3]; NaHCO3 buffer pH 6.9, listed as level 0.01 (unit not given)): 0.397
Absorbance at 450 nm ([3]; NaHCO3 buffer pH 6.9, listed as level 0.1 (unit not given)): 0.896
Absorbance at 450 nm ([3]; NaHCO3 buffer pH 6.9, listed as level 1 (unit not given)): 0.853
Absorbance at 450 nm ([3]; NaHCO3 buffer pH 7.1, listed as level 0.0001 (unit not given)): 0.217
Absorbance at 450 nm ([3]; NaHCO3 buffer pH 7.1, listed as level 0.0002 (unit not given)): 0.195
Absorbance at 450 nm ([3]; NaHCO3 buffer pH 7.1, listed as level 0.0005 (unit not given)): 0.200
Absorbance at 450 nm ([3]; NaHCO3 buffer pH 7.1, listed as level 0.001 (unit not given)): 0.159
Absorbance at 450 nm ([3]; NaHCO3 buffer pH 7.1, listed as level 0.01 (unit not given)): 0.366
Absorbance at 450 nm ([3]; NaHCO3 buffer pH 7.1, listed as level 0.1 (unit not given)): 0.855
Absorbance at 450 nm ([3]; NaHCO3 buffer pH 7.1, listed as level 1 (unit not given)): 0.849
Absorbance at 450 nm ([3]; NaHCO3 buffer pH 7.7, listed as level 0.0001 (unit not given)): 0.242
Absorbance at 450 nm ([3]; NaHCO3 buffer pH 7.7, listed as level 0.0002 (unit not given)): 0.208
Absorbance at 450 nm ([3]; NaHCO3 buffer pH 7.7, listed as level 0.0005 (unit not given)): 0.187
Absorbance at 450 nm ([3]; NaHCO3 buffer pH 7.7, listed as level 0.001 (unit not given)): 0.254
Absorbance at 450 nm ([3]; NaHCO3 buffer pH 7.7, listed as level 0.01 (unit not given)): 0.387
Absorbance at 450 nm ([3]; NaHCO3 buffer pH 7.7, listed as level 0.1 (unit not given)): 0.817
Absorbance at 450 nm ([3]; NaHCO3 buffer pH 7.7, listed as level 1 (unit not given)): 0.809

maltotriose
Kd ([1]; Kd expressed as ppb): about 120 ppb
